Ten molecules from patent publication US12365687B2 (Hoffmann-La Roche Inc., priority 2021, dated 2025) can be followed below.

Test [1] has as its target human GABAA α1β3γ2 receptor (Homo sapiens (Human), UniProt P14867+P18507). Description: Radioligand binding assay for γ2-containing GABAA subtypes, [3H]Flumazenil competition (α1β3γ2). The note with it: for γ2/γ1 Selectivity Ratio: Ki α1β3γ2 (nM)/Ki α2β2γ1 (nM); for LogSel: Log[Ki α1β3γ2 (nM)/Ki α2β2γ1 (nM)].
The target in test [2] is α2β2γ1 GABAA receptor subtype (Homo sapiens (Human), UniProt P47869+Q8N1C3). Put plainly: Two-electrode voltage clamp electrophysiology in Xenopus oocytes expressing GABAA receptors (modulation of GABA EC20 current). Type of test: cell-based. To be noted: for Efficacy (GABA)%: % modulation of GABA EC20 = 100*(Fold increase-1), α2β2γ1 oocytes, compound at approx. 30-fold Ki; for Fold increase h-GABA-A α2β2γ1 oocyte @ 30-fold Ki: Xenopus oocytes expressing α2β2γ1, compound at approx. 30-fold its Ki α2β2γ1, GABA EC20 current. In outline: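 Two-electrode voltage clamp at −80 mV, room temperature, 3-5 days after mRNA injection into oocytes. GABA applied at EC20 for 1.5 min, twice, with compound during second application; at least 3 oocytes per concentration. Efficacy = extremum of point-by-point current ratio, expressed as 100×(fold increase−1).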
In general terms: Two-electrode voltage clamp is typically applied to oocytes expressing channels or transporters.

In test [3] the target is human GABAA α5β2γ1 receptor (Homo sapiens (Human), UniProt P31644+Q8N1C3). Put plainly: Radioligand binding assay for γ1-containing GABAA subtypes, [3H]RO7239181 competition (α5β2γ1).
Test [4] deals with human GABAA α2β2γ1 receptor (Homo sapiens (Human), UniProt P47869+Q8N1C3). Put plainly: Radioligand binding assay for γ1-containing GABAA subtypes, [3H]RO7239181 competition (α2β2γ1).
Test [5] has as its target human GABAA α1β2γ1 receptor (Homo sapiens (Human), UniProt P14867+Q8N1C3). Description: Radioligand binding assay for γ1-containing GABAA subtypes, [3H]RO7239181 competition (α1β2γ1). How it is done:
The affinity of compounds at GABAA γ1 subunit-containing receptors was measured by competition for [^3H]RO7239181 (67.3 Ci/mmol; Roche) binding to membranes from HEK293F cells (ThermoFisher R79007) expressing human (transiently transfected) receptors of composition α5β2γ1, α2β2γ1, α1β2γ1.
Harvested pellets from HEK293F cells expressing the different GABAA receptor subtypes were resuspended in Mannitol Buffer pH 7.2-7.4 (Mannitol 0.29 M, Triethylamine 10 mM, Acetic acid 10 mM, EDTA 1 mM plus protease inhibitors (20 tablets Complete, Roche Diagnostics Cat. No. 05 056 489 001 per liter)), washed two times and then resuspended at 1:10 to 1:15 dilution in the same buffer. Cell disruption was performed by stirring the suspension in a Parr vessel #4637 at 435 psi for 15 minutes, and then the suspensions were centrifuged at 1000×g for 15 minutes at 4° C. (Beckman Avanti J-HC; rotor JS-4.2). The supernatant (S1) was transferred in a 2 l Schott flask and the pellet (P1) was resuspended with Mannitol Buffer up to 175 ml. The resuspended pellet was transferred into a 250 ml Corning centrifugal beaker and centrifuged at 1500×g for 10 minutes at 4° C. (Beckman Avanti J-HC; rotor JS-4.2). The supernatant (S1) was then transferred in the 2 l Schott flask and the pellet was discarded. The supernatants (S1) were centrifuged in 500 ml Beckman polypropylene centrifugal beaker at 15′000×g for 30 minutes at 4° C. (Beckman Avanti J-20 XP; rotor JLA-10.500). The pellet (P2) was resuspended with Mannitol Buffer 1:1 and frozen at −80° C. The supernatant (S2) was centrifuged in 100 ml Beckman polypropylene centrifugal tubes at 48000×g for 50 minutes at 4° C. (Beckman Avanti J-20 XP; rotor JA-18). The supernatant (S3) was discarded and the pellet (P3) was resuspended with 1:1 Mannitol Buffer. The P2 and P3 protein concentration was determined with the BIORAD Standard assay method with bovine serum albumin as standard and measured on the NANO-Drop 1000. The membrane suspension was aliquots (500 μl per tube) and stored at −80° C. until required.
Membrane homogenates were resuspended and polytronised (Polytron PT1200E Kinematica AG) in Potassium Phosphate 10 mM, KCl 100 mM binding buffer at pH 7.4 to a final assay concentration determined with a previous experiment.
Assays were incubated to equilibrium for 1 hour at 4° C. and then, membranes were filtered onto unifilter (96-well white microplate with bonded GF/C filters preincubated 20-50 minutes in 0.3% Polyethylenimine) with a Filtermate 196 harvester (Packard BioScience) and washed 4 times with cold Potassium Phosphate 10 mM pH 7.4, KCl 100 mM binding buffer. After anhydrousing, filter-retained radioactivity was detected by liquid scintillation counting. Ki values were calculated using Excel-Fit (Microsoft) and are the means of two determinations.

[6] abbreviates: Ki h-GABAA α2β2γ1, [3H]RO7239181 competition binding, human GABAA α2β2γ1.
Setting [7] is: Ki h-GABAA α2β2γ1, displacement of [3H]RO7239181, membranes of HEK293F cells expressing human receptors, means of two determinations.

For `COC1CN(C(=O)c2cn3c(n2)CN=C(c2ccccc2F)c2c-3ccc(Cl)c2Cl)C1` [Example 1, (7,8-dichloro-6-(2-fluorophenyl)-4H-benzo[f]imidazo[1,2-a][1,4]diazepin-2-yl)(3-methoxyazetidin-1-yl)methanone], the Ki in test [1] came out at 638 nM; in test [3], 3.19 nM; in test [4] (setting [6]) it was 25 nM; in test [4] (setting [7]), 25 nM; in test [5], 35.1 nM. In test [1], the “γ2/γ1 Selectivity Ratio” value is 25.5. This molecule yielded a LogSel in test [1] of 1.41. Also, the “Efficacy (GABA)%” value in test [2] turned out to be 77%. The “Fold increase h-GABA-A α2β2γ1 oocyte @ 30-fold Ki” value in test [2] is given as 1.77.
Regarding `C[C@@H]1N=C(c2c(F)cccc2F)c2c(ccc(Cl)c2Cl)-n2nc(C(=O)N3CCC3)nc21` [Example 14, azetidin-1-yl-[(4S)-7,8-dichloro-6-(2,6-difluorophenyl)-4-methyl-4H-[1,2,4]triazolo[1,5-a][1,4]benzodiazepin-2-yl]methanone], the Ki in test [1] came to 773 nM; in test [3], 1.11 nM; in test [4] (setting [6]), 7.1 nM; in test [4] (setting [7]) it was 7.1 nM; in test [5], 8.5 nM. In test [1], the “γ2/γ1 Selectivity Ratio” value is given as 108.2. In test [1], this molecule had a LogSel of 2.03. In addition, the “Efficacy (GABA)%” value in test [2] came to 57%. Also, in test [2], the “Fold increase h-GABA-A α2β2γ1 oocyte @ 30-fold Ki” value is 1.57.
As to `COC1CN(C(=O)c2nc3n(n2)-c2ccc(Cl)c(Cl)c2C(c2c(F)cccc2F)=N[C@H]3C)C1` [Example 16, [(4S)-7,8-dichloro-6-(2,6-difluorophenyl)-4-methyl-4H-[1,2,4]triazolo[1,5-a][1,4]benzodiazepin-2-yl]-(3-methoxyazetidin-1-yl)methanone], the Ki in test [1] was 571 nM; in test [3], 1.2 nM; in test [4] (setting [6]), 5.2 nM; in test [4] (setting [7]), 5.2 nM; in test [5] it was 9.2 nM. Besides, the “γ2/γ1 Selectivity Ratio” value in test [1] was 109.6. For the same molecule, the LogSel in test [1] is on record as 2.04. Moreover, the “Efficacy (GABA)%” value in test [2] is 52%. Besides, the “Fold increase h-GABA-A α2β2γ1 oocyte @ 30-fold Ki” value in test [2] turned out to be 1.52.
`Cc1nc2n(n1)-c1ccc(Cl)c(Cl)c1C(c1c(F)cccc1F)=N[C@H]2C` [Example 21, (4S)-7,8-dichloro-6-(2,6-difluorophenyl)-2,4-dimethyl-4H-[1,2,4]triazolo[1,5-a][1,4]benzodiazepine]: the Ki in test [1] was found to be 244 nM; in test [3], 0.69 nM; in test [4] (setting [6]), 4.4 nM; in test [4] (setting [7]) it was 4.43 nM; in test [5] it was 8.3 nM. The “γ2/γ1 Selectivity Ratio” value in test [1] was found to be 55.0. The LogSel in test [1] stood at 1.74. For the same molecule, in test [2], the “Efficacy (GABA)%” value is 67%. In test [2], the “Fold increase h-GABA-A α2β2γ1 oocyte @ 30-fold Ki” value is listed as 1.67.
Take `COC1CN(C(=O)c2nc3n(n2)-c2ccc(C(F)(F)F)c(Cl)c2C(c2c(F)cccc2F)=N[C@H]3C)C1` [Example 23]: the Ki in test [1] was determined as 1140 nM; in test [3], 1.63 nM; in test [4] (setting [6]) it was 11.8 nM; in test [4] (setting [7]), 11.8 nM; in test [5], 29 nM. Besides, in test [1], the “γ2/γ1 Selectivity Ratio” value came out at 96.8. Further, the “Efficacy (GABA)%” value in test [2] came to 63%.
With `C[C@@H]1N=C(c2c(F)cccc2F)c2c(ccc(C(F)(F)F)c2Cl)-n2nc(C(=O)N3CCC3)nc21` [Example 26, azetidin-1-yl-[(4S)-7-chloro-6-(2,6-difluorophenyl)-4-methyl-8-(trifluoromethyl)-4H-[1,2,4]triazolo[1,5-a][1,4]benzodiazepin-2-yl]methanone], the Ki came to 1840 nM in test [1]; 2.48 nM in test [3]; 8.6 nM in test [4] (setting [6]); 8.6 nM in test [4] (setting [7]); 38.1 nM in test [5]. Moreover, the “γ2/γ1 Selectivity Ratio” value in test [1] was 213.1. In addition, the LogSel in test [1] was 2.33. Further, the “Efficacy (GABA)%” value in test [2] is reported as 75%. Further, the “Fold increase h-GABA-A α2β2γ1 oocyte @ 30-fold Ki” value in test [2] was determined as 1.75.
Turning to `C[C@@H]1N=C(c2c(F)cccc2F)c2c(ccc(Cl)c2Cl)-n2nc(C(=O)N3CCS(=O)(=O)CC3)nc21` [Example 36, [(4S)-7,8-dichloro-6-(2,6-difluorophenyl)-4-methyl-4H-[1,2,4]triazolo[1,5-a][1,4]benzodiazepin-2-yl]-(1,1-dioxo-1,4-thiazinan-4-yl)methanone], the Ki in test [1] came out at 778 nM; in test [3], 0.95 nM; in test [4] (setting [6]), 3.5 nM; in test [4] (setting [7]) it was 3.46 nM; in test [5], 8.25 nM. Further, the “γ2/γ1 Selectivity Ratio” value in test [1] was determined as 224.7. This molecule had a LogSel in test [1] of 2.35. Also, in test [2], the “Efficacy (GABA)%” value is 71%. Besides, in test [2], the “Fold increase h-GABA-A α2β2γ1 oocyte @ 30-fold Ki” value is 1.71.
With `C[C@@H]1N=C(c2c(F)cccc2F)c2c(ccc(Cl)c2Cl)-n2nc(C(=O)NCCO)nc21` [Example 54, (4S)-7,8-dichloro-6-(2,6-difluorophenyl)-N-(2-hydroxyethyl)-4-methyl-4H-[1,2,4]triazolo[1,5-a][1,4]benzodiazepine-2-carboxamide], the Ki in test [1] came to 581 nM; in test [3] it was 0.97 nM; in test [4] (setting [6]) it was 4.4 nM; in test [4] (setting [7]) it was 4.38 nM; in test [5] it was 15.2 nM. For the same molecule, in test [1], the “γ2/γ1 Selectivity Ratio” value came out at 132.7. This molecule also returned a LogSel in test [1] of 2.12. For the same molecule, the “Efficacy (GABA)%” value in test [2] came to 80%. The “Fold increase h-GABA-A α2β2γ1 oocyte @ 30-fold Ki” value in test [2] was found to be 1.80.
Regarding `C[C@@H]1N=C(c2c(F)cccc2F)c2c(ccc(C(F)(F)F)c2Cl)-n2nc(C(=O)N3CC(O)C3)nc21` [Example 58, (3-hydroxyazetidin-1-yl)-[(4S)-7-chloro-6-(2,6-difluorophenyl)-4-methyl-8-(trifluoromethyl)-4H-[1,2,4]triazolo[1,5-a][1,4]benzodiazepin-2-yl]methanone], the Ki in test [1] was 1090 nM; in test [3], 2.3 nM; in test [4] (setting [6]) it was 7 nM; in test [4] (setting [7]) it was 7 nM; in test [5] it was 23.9 nM. Besides, the “γ2/γ1 Selectivity Ratio” value in test [1] was found to be 156.8. In test [1], this molecule returned a LogSel of 2.20. In addition, the “Efficacy (GABA)%” value in test [2] is 112%. The “Fold increase h-GABA-A α2β2γ1 oocyte @ 30-fold Ki” value in test [2] turned out to be 2.12.
On to `C[C@@H]1N=C(c2ncccc2F)c2c(ccc(C(F)(F)F)c2Cl)-n2cc(C(=O)N[C@H]3C[C@@H](O)C3)nc21` [Example 166, (4S)-7-chloro-6-(3-fluoro-2-pyridyl)-N-(cis-3-hydroxycyclobutyl)-4-methyl-8-(trifluoromethyl)-4H-imidazo[1,2-a][1,4]benzodiazepine-2-carboxamide], for which the Ki in test [1] came out at 10200 nM; in test [3] it was 9.14 nM; in test [4] (setting [6]), 46.5 nM; in test [4] (setting [7]), 43.4 nM. For the same molecule, the “γ2/γ1 Selectivity Ratio” value in test [1] was 234.5. This molecule also showed a LogSel in test [1] of 2.37. The “Efficacy (GABA)%” value in test [2] is recorded as 184%. For the same molecule, the “Fold increase h-GABA-A α2β2γ1 oocyte @ 30-fold Ki” value in test [2] is listed as 2.84.

A word on the Ki: it is a measure of affinity in units of concentration, obtained from inhibition or displacement. A higher Ki goes with lower affinity.
